The test system of assay [1] is cellular ATP production in PF T. brucei. The assay can be described thus: ATP monitoring in live PF cells (proline as sole carbon source, bioluminescence). The class given is cell-based, Trypanosoma brucei. The following applies: 2 h, normalised to no inhibitor control. Here is the method:
We first set out to determine if B-THP-T compounds affected cellular ATP levels. PF T. brucei were incubated in buffered PBS with/without proline as the sole carbon source and various inhibitors for 2 h. Cells were harvested and their ATP content was determined by bioluminescence assay. Two ETC inhibitors were used as positive control: malonate is a competitive inhibitor of mitochondrial complex II and prevents the […] of succinate to fumarate and entry of electrons to the ETC; and antimycin A (AA) is a mitochondrial complex III inhibitor, which prevents the transfer of electrons to cytochrome c and ubiquinone recycling. […] Compound 1 inhibited ATP production in a dose-response manner to similar levels (by 55 ± 6%), supporting the hypothesis from pull-down data that its target is involved in the ATP production pathway from proline.
Fig 4 B-THP-Ts decrease cellular ATP levels. PF T. brucei cells were incubated in buffered PBS with/without proline (as sole carbon source) and various inhibitors (concentrations indicated) incubated for 2 h, after which cells were harvested and cellular ATP levels were monitored by bioluminescence assay. Key: NS, no substrate; NI, no inhibitor control; Malonate (complex II inhibitor) AA, antimycin A (AA, complex III inhibitor). Background relative light units (RLU) were subtracted from measurements and % ATP production normalised to the no inhibitor control. Data were averaged from two independent experiments, each performed in duplicate (n = 4). Error bars show standard deviations. […]
Effects of compounds on proline metabolism were determined using a methodology adapted from Podolec et al. Briefly, glucose-free-conditioned PF T. brucei cells were washed into buffered PBS and incubated in 200 μl volumes with inhibitors for 10 min. […] Supernatants containing metabolic end-products and citrate standard were analysed to evaluate effects on proline metabolism (see below), while the ATP content of cells was determined as follows. […] ATP content was determined as above.

For assay [2], the system named is ATP production (oxidative phosphorylation) in digitonin-permeabilised PF T. brucei. Description: ATP production assay in digitonin-permeabilised cells. The class given is cell-based, Trypanosoma brucei. The following applies: for Effect on ATP production from succinate: succinate 2.5 mM as substrate. From the text: We next sought to identify the point at which ATP production was blocked using digitonin-permeabilised cells. Digitonin permeabilises the plasma membrane of trypanosomatids, but crucially, leaves the glycosomes and mitochondria intact and fully functional, allowing them to be probed with compartment-specific ATP-yielding substrates. Digitonin-permeabilised PF T. brucei were probed with succinate, which is readily transported across the PF T. brucei mitochondrial membrane by the dicarboxylic acid carrier and can yield only oxidative phosphorylation-derived ATP through the FoF1-ATP synthase (complex V).
Fig 5 Inhibition of ATP production in digitonin-permeabilsed cells. (A-C) Digitonin-permeabilised PF T. brucei were probed with substrates in the presence of inhibitors and resulting ATP production quantified by bioluminescence assay. See experimental section for details. Inhibitors were used at saturating concentrations to ensure that relevant enzyme activities were ablated. Key: NS, no substrate; NI, no inhibitor; SHAM, salicylhydroxamic acid (TAO inhibitor at 100 μM); Rotenone (complex I inhibitor at 100 μM); Malonate (complex II inhibitor at 5 mM); AA, antimycin A (complex III inhibitor at 200 μM); OA, oligomycin A (complex V inhibitor at 200 μM); DNP, 2,4-dinitrophenol (protonophore at 1 mM); Comp.1, compound 1 at 200 μM. Background relative light units (RLU) were subtracted from measurements and % ATP production normalised to the no inhibitor control. Data were averaged from three independent experiments, each performed in quadruplicate. Error bars show standard deviations. T-tests were performed against no inhibitor controls (black asterisks) and compound 1 (grey open circles) and significance values presented: p < 0.00005 (*** / °°°), p < 0.0005 (** / °°), p < 0.005 (* / °). (A) Succinate was used as a substrate to generate ATP solely through oxidative phosphorylation (OxPhos). Oxidative phosphorylation inhibitors malonate, AA, OA and DNP virtually eliminated all ATP production. […] (B) α-ketoglutarate yields 40% ATP through substrate-level phosphorylation (SubPhos) and 60% through oxidative phosphorylation. Malonate, AA, OA and DNP inhibit oxidative phosphorylation, but not substrate-level phosphorylation. […] (C) Gly-3P acts as an alternative entry site to the electron transport chain yielding ATP through oxidative phosphorylation and the glycosome (GlyPhos). Malonate has no effect, as it acts at a different entry point. AA, OA and DNP inhibit oxidative phosphorylation, but not glycosomal phosphorylation.
ATP production assays were carried out in duplicate, and three independent assays were conducted. Cells were digitonin-permeabilised as previously described. Briefly, cells were washed in PBS and permeabilised for 5 min at a density of 1x10^8 cells/mL in SoTE buffer (20 mM Tris.HCl (pH 7.5), 2 mM EDTA pH 7.5, 600 mM sorbitol) supplemented with 0.015% (w/v) digitonin. Permeabilised cells were pelleted at 5000 g for 3 min at 4°C and suspended to 8.4x10^7 cells/mL in ATP assay buffer (20 mM Tris.HCl (pH 7.4), 15 mM KH2PO4, 0.6 M sorbitol, 10 mM MgSO4, 2.5 mg/mL fatty acid-free BSA.
ATP production assays were carried out in 75 μl volumes in 96-well plates with a final PF T. brucei cell density of 6.7 x 10^7 cells/mL as previously reported. […] B-THP-Ts, antimycin A (AA) and oligomycin A (OA) were used at 200 μM, Dinitrophenol (DNP) at 1 mM, malonate at 5 mM, rotenone at 100 μM and salicylhydroxamic acid (SHAM) at 100 μM. 59.25 μL digitonin-permeabilised cells (prepared above) were added to 0.75 μl inhibitor dissolved in DMSO (or 0.75 μL DMSO without inhibitor for no inhibitor control) and incubated for 10 min to allow inhibitors to take effect. Substrate was added to 2.5 mM and incubated for 10 min. Reactions were started with the addition of ADP to 60 μM and incubated at RT for 30 min. […]

Where [3] appears, read: glycerol-3-phosphate as substrate, 30 min, compound 1, AA, OA 200 μM, DNP 1 mM.
Setting [4] is: 30 min, compound 1, AA, OA 200 μM, DNP 1 mM, malonate 5 mM, rotenone, SHAM 100 μM.

Read-outs that look alike come from different tables or passages of the source.

By IC50 is commonly meant the point on the concentration scale where inhibition reaches its midpoint. As for `CCCCCC[C@H]1CCC[C@@H](Cn2cc([C@@H]3CCC[C@H](CCCCO)O3)nn2)O1` [Compound 1], in assay [1], the “Inhibition of cellular ATP production” value is 55 ± 6%. The IC50 came to 39.2 ± 4.6 µM in assay [2] (Trypanosoma brucei, 0.5 h, read-out: IC50 against oxidative phosphorylation (ATP production), Gly-3P as substrate, digitonin-permeabilised PF T. brucei, Gly-3P, 30 min incubation); 57.3 ± 14.5 µM in assay [2] (Trypanosoma brucei, 0.5 h, read-out: IC50 against oxidative phosphorylation (ATP production), succinate as substrate, digitonin-permeabilised PF T. brucei, succinate, 30 min incubation); 39 ± 5 µM in assay [2] (read-out: IC50 against oxidative phosphorylation (ATP production), Gly-3P as substrate, digitonin-permeabilised PF T. brucei, Gly-3P, 30 min incubation); 57 ± 15 µM in assay [2] (read-out: IC50 against oxidative phosphorylation (ATP production), succinate as substrate, digitonin-permeabilised PF T. brucei, succinate, 30 min incubation). Also, the “Inhibition of ATP production from Gly-3P” value in assay [2] (setting [3]) was 82 ± 16%. In addition, the “Effect on ATP production from succinate” value in assay [2] (setting [4]) is on record as “decreased ATP production from succinate to similar levels”. Besides, the “Inhibition of ATP production from α-ketoglutarate” value in assay [2] (α-ketoglutarate as substrate, 30 min, compound 1, AA, OA 200 μM, DNP 1 mM, malonate 5 mM) came out at 67 ± 13%.
Turning to `CCCCCC[C@H]1C(=O)O[C@H](C)[C@H](NC(=O)c2cccc(NC=O)c2O)C(=O)O[C@@H](C)[C@@H]1OC(=O)CC(C)C` [antimycin A], in assay [1], the “Inhibition of cellular ATP production” value was found to be 71 ± 9%. In addition, the “Inhibition of ATP production from Gly-3P” value in assay [2] (setting [3]) worked out at 75 ± 14%. Further, the “Effect on ATP production from succinate” value in assay [2] (setting [4]) was “almost abolished ATP production”.
Consider `O=C(O)CC(=O)O` [malonate], for which the “Inhibition of cellular ATP production” value in assay [1] stood at 62 ± 15%. In assay [2] (glycerol-3-phosphate as substrate, 30 min, malonate 5 mM, rotenone, SHAM 100 μM), the “Effect on ATP production from Gly-3P” value is on record as “no effect”. In addition, the “Effect on ATP production from succinate” value in assay [2] (setting [4]) was “completely eliminated all ATP production”.

For the origin of these results see PMC5608556, “Photo-affinity labelling and biochemical analyses identify the target of trypanocidal simplified natural product analogues” (PLoS Neglected Tropical Diseases, 2017).
